What was measured:
M327I vs WT Menin = assay: fluorescence-based kinetic binding assay (HTRF jump dilution, off-rate); parameters: species or system human
Procedure: Off-rates for test compounds were determined using jump dilution experiments in the HTRF assay measuring FITC-MLL4-43 binding to HIS-Menin. Briefly, test compounds (30 nM) were pre-incubated for 1 hr with 30 nM HIS-Menin prebound to 30 nM Lanthascreen anti-HIS-Tb antibodies in 10 μL of menin assay buffer (50 mM Tris, pH 7.4, 50 mM NaCl, 5 mM DTT, 0.01% TX100) containing 0.02% fatty acid free BSA. After pre-incubation, 1 μL of the assay mixture was transferred to 100 μL of menin assay buffer containing 30 nM FITC-MLL-4-43 (1000×Ki) in white, opaque 384-well plates. The HTRF signal was measured at various times using a 320 nm excitation and 520 and 620 nm emission wavelengths with a 50 us delay and a 200 us window with the gain set to 2100 using a BMGlabTech ClarioStar Plus plate reader. The data was normalized to % inhibition at each time point, where 0% is the HTRF signal in the presence of 0.3 nM HIS-menin without test compound, and 100% is the HTRF signal in the absence of HIS-menin. The resulting % inhibition values were fit to a one-site exponential dissociation model using XlFit to determine the dissociation rate.

[1] = biological target: T1, M327I and T349M-mutant Menin (Homo sapiens, UniProt O00255, M322I); assay: isothermal titration calorimetry (ITC); assay type: binding; settings: MEN1-M327I compared to MEN1-WT
T1 sequence (O00255 1-615 isoform O00255-1 M327I): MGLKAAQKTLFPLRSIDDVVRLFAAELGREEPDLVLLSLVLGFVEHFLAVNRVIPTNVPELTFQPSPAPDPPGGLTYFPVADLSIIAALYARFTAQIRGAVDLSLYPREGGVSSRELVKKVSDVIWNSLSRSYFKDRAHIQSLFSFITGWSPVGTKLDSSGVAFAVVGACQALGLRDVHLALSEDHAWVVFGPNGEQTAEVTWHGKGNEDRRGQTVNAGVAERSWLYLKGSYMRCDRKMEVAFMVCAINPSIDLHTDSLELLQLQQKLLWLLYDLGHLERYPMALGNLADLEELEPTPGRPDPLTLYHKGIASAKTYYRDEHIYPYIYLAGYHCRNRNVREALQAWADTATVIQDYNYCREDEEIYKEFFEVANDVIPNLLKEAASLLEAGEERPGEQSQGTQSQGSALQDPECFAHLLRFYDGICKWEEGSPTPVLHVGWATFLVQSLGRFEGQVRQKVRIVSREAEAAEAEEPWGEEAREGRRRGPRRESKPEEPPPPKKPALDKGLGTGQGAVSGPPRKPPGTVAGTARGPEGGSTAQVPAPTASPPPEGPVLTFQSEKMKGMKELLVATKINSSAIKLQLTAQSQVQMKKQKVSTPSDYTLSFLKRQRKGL
Procedure: (§1) All calorimetric experiments were carried out in ITC buffer (25 mM Hepes (pH 7.5), 200 mM NaCl, 1.0 mM TCEP) at 25° C. using an Affinity ITC from TA Instruments (New Castle, DE) equipped with autosampler. SNDX-5613 was dissolved in DMSO and diluted with the ITC buffer to final concentrations (50-200 μM. 1% DMSO). Protein sample was adjusted to contain 1% DMSO final concentration. The calorimetric cell, containing buffer or Menin (10 μM WT Menin, 5 μM M327I Menin, or 10 μM T349M Menin) was titrated by injecting 2.5 μl of SNDX-5613 solution with the concentration of 100 μM, 50 μM or 200 μM, respectively, 24 times with stirring speed at 75 rpm. The resulting isotherms were subtracted against buffer runs and fitted with a single-site model to yield thermodynamic parameters of ΔH and ΔS, stoichiometry, and KD using NanoAnalyze software (TA Instruments).

[2] = test system: M327I and T349M-mutant Menin; assay: isothermal titration calorimetry (ITC); assay type: binding, human; settings: mutant vs WT Menin
Procedure: as §1

[3] = test system: Menin on chromatin in MV4;11 MEN1 M327I/M327I cells; assay: ChIP-Seq of Menin chromatin occupancy; assay type: cell-based, human; settings: 5 μM, M327I mutant
Procedure: (§2) Cells were sequentially cross-linked using 2 mM DSG disuccinimidyl glutarate for 30 min and a final concentration of 1% formaldehyde for 10 min at room temperature (20-25° C.) and stopped with 125 mM glycine. Cells were lysed in lysis buffer (20 mM Tris-HCl at pH 7.5. 300 mM NaCl, 2 mM EDTA, 0.5% NP40, 1% Triton X-100, 1 mM PMSF, PIC) and incubated on ice for 30 min. The resuspended cells were then dounced in an ice-cold homogenizer. Nuclear pellets were collected and resuspended in shearing buffer (0.1% SDS, 0.5% N-lauroylsarcosine, 1% Triton X-100, 10 mM Tris-HCl at pH 8.1, 100 mM NaCl, 1 mM EDTA. 1 mM PMSF, PIC). Isolated chromatin was fragmented to an average size of 200-600 bp with a bioruptor (Diagenode). Precleared chromatin was immunoprecipitated overnight at 4° C. and immunocomplexes were collected with protein A Dynabeads. […] Reads were aligned to human GRCh38/hg38 genome using STAR 2.7.5. Aligned BAM files were sorted, duplicate reads marked and removed, and deduplicated BAMs indexed using Broad picard tools v2.9.4. Signal intensities around transcription start sites (TSS, +/−3000 bp) were quantified using BEDtools (v. 2.28.0) and data visualizations were produced using IGVtools (TDF signal pileups; v2.3.75) and ngs.plot (pileup heatmaps/torpedo plots). […]

[4] = test system: Menin on chromatin in MV4;11 MEN1-WT cells; assay: ChIP-Seq of Menin chromatin occupancy; assay type: cell-based, human; settings: 100 nM
Procedure: as §2

SMILES: CCN(C(=O)c1cc(F)ccc1Oc1cncnc1N1CC2(CCN(C[C@H]3CC[C@H](NS(=O)(=O)CC)CC3)CC2)C1)C(C)C [SNDX-5613, revumenib]
- increase in the dissociation off rate (M327I vs WT Menin): > 30 fold
- reduction in affinity, isothermal calorimetry [1]: over 50 fold
- change in mutant binding affinities (Kd) determined by isothermal calorimetry [2]: > 50 fold
- Menin chromatin occupancy [3]: partial decrease in Menin chromatin occupancy
- displacement of Menin from chromatin [4]: near-complete and global displacement of Menin from chromatin
